# Measurements from publication PMC6430037 (Heliyon, 2019).
# What was measured:
# [1] = test system: BDZ-bs of the GABAA receptor; assay: [3H]-FNZ radioligand binding assay; conditions: [3H]-FNZ displacement, compound at 300 μM, rat cerebral cortex membranes
# μ-opioid receptor [2] = target: T1, μ-opioid receptor (Rattus norvegicus, UniProt P33535); assay: [3H]-DAMGO radioligand binding assay; conditions: read-out: μ-opioid Binding inhibition (%) [300 μM]
# hMAO A = conditions: cited from earlier work
# mice [3] = assay: Tail suspension test; assay type: in vivo; conditions: 30 min before
# μ-opioid receptor [4] = target: T1, μ-opioid receptor; conditions: read-out: μ-opioid Ki; [3H]-DAMGO, rat forebrain membranes; cited from earlier work
# [5] = PAMPA-BBB permeability assay; assay type: in vitro ADME
# 5-HT1A receptor = target: T2, 5-HT1A receptor (Rattus norvegicus, UniProt P19327); assay: [3H]-8-OH-DPAT radioligand binding assay
# T2 sequence (P19327 1-422): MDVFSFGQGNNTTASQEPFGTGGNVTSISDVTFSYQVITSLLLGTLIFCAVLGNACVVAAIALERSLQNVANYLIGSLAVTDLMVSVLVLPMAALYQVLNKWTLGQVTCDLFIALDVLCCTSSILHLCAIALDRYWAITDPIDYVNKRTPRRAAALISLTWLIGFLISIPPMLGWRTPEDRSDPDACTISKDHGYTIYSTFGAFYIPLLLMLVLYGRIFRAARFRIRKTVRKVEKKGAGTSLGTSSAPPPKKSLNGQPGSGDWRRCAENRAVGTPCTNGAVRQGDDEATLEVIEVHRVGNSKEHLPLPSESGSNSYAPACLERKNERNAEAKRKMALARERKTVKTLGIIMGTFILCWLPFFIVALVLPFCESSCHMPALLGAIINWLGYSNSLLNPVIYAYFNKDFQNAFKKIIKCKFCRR
# SH-SY5Y cells = assay: Cell viability assay; assay type: cell-based, human; conditions: 48 h, SH-SY5Y
# Cell viability assay = assay type: cell-based, human; conditions: human, SH-SY5Y cells
# hMAO B = conditions: read-out: IC50 hMAO B; cited from earlier work
# mice [6] = assay: Spontaneous locomotor activity; assay type: in vivo; conditions: 30 mg/kg i.p., 5 min counts
# rats = conditions: cited from earlier work
# [7] = target: benzodiazepine binding site (BDZ-bs) of the GABAA receptor; conditions: read-out: Ki for the BDZ-bs of the GABAA receptor; cited from earlier work
# T1 sequence (P33535 whole entry): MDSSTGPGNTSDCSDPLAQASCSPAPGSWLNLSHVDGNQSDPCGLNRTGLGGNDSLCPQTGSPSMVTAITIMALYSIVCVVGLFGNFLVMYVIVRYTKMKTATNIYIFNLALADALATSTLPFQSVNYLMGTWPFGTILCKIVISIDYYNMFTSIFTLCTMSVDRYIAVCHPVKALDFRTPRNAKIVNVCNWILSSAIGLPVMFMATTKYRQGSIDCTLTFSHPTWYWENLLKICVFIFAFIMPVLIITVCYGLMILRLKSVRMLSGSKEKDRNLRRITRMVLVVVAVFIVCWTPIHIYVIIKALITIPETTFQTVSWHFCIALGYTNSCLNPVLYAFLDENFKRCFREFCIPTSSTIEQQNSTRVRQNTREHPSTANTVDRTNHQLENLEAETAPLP
SMILES,BDZ-bs Binding inhibition (%) [300 μM] [1],inhibition at 300 µM (μ-opioid receptor [2]),effect on hMAO A (hMAO A),immobility time vs VEH (mice [3]; 10 mg/kg i.p.),immobility time vs VEH (mice [3]; 30 mg/kg i.p.),Ki (μ-opioid receptor [4]),"Papp at 16 h, 50 µM ([5]; PAMPA, pH 7.4)",BBB penetration estimation Prediction ([5]; PAMPA-BBB binning by -logPe),Ki (5-HT1A receptor),inhibition at 300 µM (5-HT1A receptor; read-out: 5-HT1A Binding Inhibition (%) [300 μM]),concentration up to which cell viability was not affected (SH-SY5Y cells),"viability at 48 h, 20 µM (Cell viability assay)",IC50 (hMAO B),spontaneous locomotor activity vs VEH (mice [6]),effect in the plus-maze test (rats),Ki [7]
"O=C(/C=C/c1ccccc1)c1ccccc1 [Compound 1, Chalcone]",++++ (inhibition >90% (++++)),60 to 90%,no effect,significantly reduced,significantly reduced,28.2 ± 9.9 µM,26.3 ×10⁻⁶ cm/s,"CNS+ (CNS+, -logPe < 5.6, high permeability)",20.8 ± 1.5 µM,60 to 90%,75 µM,95.9%,1.41 ± 0.07 µM,significant increase,,
"O=C(/C=C/c1ccc(O)cc1)c1ccc(O)cc1O [isoliquiritigenin, 2′,4′,4-trihydroxychalcone]",,,,,,,,,,,,,,,anxiolytic-like effect,0.45 µM
